# Experiment: in vitro
# Conditions: human, hela cells, % viability
row,SMILES,"viability at 28.5 h, 10 µM [%]"
1,COc1ccc(-c2cnc3[nH]c(=O)n([C@H](C)c4ccccc4)c3n2)c(OC)c1OC [CBK064236],94.7
2,COc1ccc(-c2cnc3[nH]c(=O)n(CCCN4CCOCC4)c3n2)c(OC)c1OC [CBK064249],109
3,CCCC/C=C/c1cnc2[nH]c(=O)n(C3CCOCC3)c2n1 [CBK064253],98.1
4,COc1cc(-c2cnc3[nH]c(=O)n(C4CCOCC4)c3n2)cc(OC)c1OC [CBK064255],94.6
5,O=c1[nH]c2ncc(-c3cccc4ccccc34)nc2n1Cc1cccnc1 [CBK064274],102
6,O=c1[nH]c2ncc(-c3cccc4cccnc34)nc2n1Cc1cccnc1 [CBK064305],58.9
7,O=c1[nH]c2ncc(-c3cccc(-c4ccccc4)c3)nc2n1CCCN1CCOCC1 [CBK064311],92.1
8,O=c1[nH]c2ncc(-c3ccco3)nc2n1CCCN1CCOCC1 [CBK064319],90.6
9,COc1ccc(C(C)C)cc1-c1cnc2[nH]c(=O)n(CCc3cccnc3)c2n1 [CBK064343],90.4
10,O=c1[nH]c2ncc(-c3ccco3)nc2n1Cc1ccccn1 [CBK064349],101
11,C[C@@H](c1ccccc1)n1c(=O)[nH]c2ncc(-c3ccc(N(C)C)cc3)nc21 [CBK064352],103
12,CC(=O)c1ccc(-c2cnc3[nH]c(=O)n([C@@H](C)c4ccccc4)c3n2)s1 [CBK064360],98.3
13,CCCC/C=C/c1cnc2[nH]c(=O)n(Cc3ccccn3)c2n1 [CBK064365],102
14,COCCCn1c(=O)[nH]c2ncc(-c3ccc(C(=O)N4CCOCC4)cc3)nc21 [CBK064366],97.8
15,C[C@@H](c1ccccc1)n1c(=O)[nH]c2ncc(-c3cccc(C(=O)NCCN(C)C)c3)nc21 [CBK064376],103
16,CC(=O)c1ccc(-c2cnc3[nH]c(=O)n(C4CCCCC4)c3n2)s1 [CBK064382],103
17,CS(=O)(=O)c1ccc(-c2cnc3[nH]c(=O)n(Cc4cccs4)c3n2)cc1 [CBK064383],93.1
18,O=c1[nH]c2ncc(-c3ccco3)nc2n1Cc1ccc(F)c(Cl)c1 [CBK064393],108
19,C[C@@H](c1ccccc1)n1c(=O)[nH]c2ncc(-c3cccc4ncccc34)nc21 [CBK064394],116
20,CC(C)Cn1c(=O)[nH]c2ncc(-c3cccc4cccnc34)nc21 [CBK064400],60.5
21,COc1ncc(-c2cnc3[nH]c(=O)n([C@H](C)c4ccccc4)c3n2)cn1 [CBK064401],85.3

row,SMILES,"viability at 28.5 h, 10 µM [%]"
1,O=c1[nH]c2ncc(-c3ccc(OC(F)(F)F)cc3)nc2n1Cc1ccc(Cl)cc1 [CBK064409],103
2,O=C(c1ccc(-c2cnc3[nH]c(=O)n(Cc4ccccn4)c3n2)cc1)N1CCOCC1 [CBK064413],110
3,COCCCn1c(=O)[nH]c2ncc(-c3ccc(O)cc3)nc21 [CBK064425],93.6
4,O=c1[nH]c2ncc(-c3ccco3)nc2n1Cc1cccs1 [CBK064438],103
5,COCCCn1c(=O)[nH]c2ncc(-c3ccco3)nc21 [CBK064449],99.2
6,COc1cc(-c2cnc3[nH]c(=O)n([C@@H](CO)C(C)C)c3n2)cc(OC)c1OC [CBK064471],105
7,CC(C)[C@H](CO)n1c(=O)[nH]c2ncc(-c3ccco3)nc21 [CBK064479],86.7
8,O=c1[nH]c2ncc(-c3ccncc3)nc2n1CC1CC1 [CBK064539],90
9,CCCC/C=C/c1cnc2[nH]c(=O)n(CCCOC)c2n1 [CBK064540],109
10,C[C@@H](c1ccccc1)n1c(=O)[nH]c2ncc(-c3ccc(C(=O)NC4CCCC4)cc3)nc21 [CBK064542],91.2
11,CC(C)Cn1c(=O)[nH]c2ncc(-c3ccc(C(=O)NC4CCCC4)cc3)nc21 [CBK064551],108
12,CN(C)C(=O)c1cccc(-c2cnc3[nH]c(=O)n(Cc4ccc(Cl)cc4)c3n2)c1 [CBK064553],97.5
13,C[C@H](c1ccccc1)n1c(=O)[nH]c2ncc(-c3ccc(C(=O)N4CCN(C)CC4)cc3)nc21 [CBK064559],101
14,O=c1[nH]c2ncc(-c3cccnc3)nc2n1Cc1ccc(Cl)cc1 [CBK064561],98.3
15,O=c1[nH]c2ncc(-c3ccsc3)nc2n1C1CCCCC1 [CBK064574],92.6
16,CN(C)CCNC(=O)c1ccc(-c2cnc3[nH]c(=O)n(CC4CC4)c3n2)cc1 [CBK064578],94.6
17,O=C(NC1CCCC1)c1ccc(-c2cnc3[nH]c(=O)n(C4CCCCC4)c3n2)cc1 [CBK064582],113
18,COc1cccc(-c2cnc3[nH]c(=O)n(Cc4ccc(Cl)cc4)c3n2)c1 [CBK064596],111
19,COCCCn1c(=O)[nH]c2ncc(-c3cnc(OC)nc3)nc21 [CBK064618],92
20,COc1cc(-c2cnc3[nH]c(=O)n(CCc4ccncc4)c3n2)cc(OC)c1OC [CBK064620],96.9
21,COc1ccccc1-c1cnc2[nH]c(=O)n(Cc3ccc(F)c(Cl)c3)c2n1 [CBK064662],103

row,SMILES,"viability at 28.5 h, 10 µM [%]"
1,CN(C)c1cccc(-c2cnc3[nH]c(=O)n(-c4ccc5[nH]ccc5c4)c3n2)c1 [CBK064682],103
2,COc1ccccc1-c1cnc2[nH]c(=O)n(CC(C)(C)CO)c2n1 [CBK064690],90.2
3,COc1ccccc1-c1cnc2[nH]c(=O)n([C@@H](C)c3ccccc3)c2n1 [CBK064717],93.3
4,CC(C)(CO)Cn1c(=O)[nH]c2ncc(-c3ccco3)nc21 [CBK064721],98.8
5,COc1cc(-c2cnc3[nH]c(=O)n(Cc4ccco4)c3n2)cc(OC)c1OC [CBK064755],96.3
6,COc1ccc(-c2cnc3[nH]c(=O)n(CCN4CCOCC4)c3n2)cc1 [CBK064782],103
7,CN1CCN(C(=O)c2ccc(-c3cnc4[nH]c(=O)n(CCN5CCOCC5)c4n3)cc2)CC1 [CBK064800],114
8,O=c1[nH]c2ncc(-c3cncc4ccccc34)nc2n1CCCO [CBK064814],96
9,O=C(NC1CCCC1)c1ccc(-c2cnc3[nH]c(=O)n(CCCN4CCOCC4)c3n2)cc1 [CBK064829],102
10,CC(C)[C@@H](CO)n1c(=O)[nH]c2ncc(-c3cccc4cccnc34)nc21 [CBK064848],102
11,CC(=O)Nc1cccc(-c2cnc3[nH]c(=O)n(C4CC4)c3n2)c1 [CBK064859],103
12,COc1ccc(-c2cnc3[nH]c(=O)n(C4CC4)c3n2)cc1 [CBK064907],86.9
13,COc1ncc(-c2cnc3[nH]c(=O)n(C4CC4)c3n2)cn1 [CBK064908],89.1
14,COCCCn1c(=O)[nH]c2ncc(-c3cc(OC)c(OC)c(OC)c3)nc21 [CBK064937],91.8
15,CC(C)[C@H](CO)n1c(=O)[nH]c2ncc(-c3cccc4ncccc34)nc21 [CBK064955],99.5
16,CCCC/C=C/c1cnc2[nH]c(=O)n(Cc3ccc(S(N)(=O)=O)cc3)c2n1 [CBK064956],98.8
17,CC(C)[C@@H](CO)n1c(=O)[nH]c2ncc(-c3cccc4ccccc34)nc21 [CBK064961],98.6
18,CN(C)c1ccc(-c2cnc3[nH]c(=O)n(C4CCCC4)c3n2)cc1 [CBK064964],98
19,O=c1[nH]c2ncc(-c3cncc4ccccc34)nc2n1C1CCC(O)CC1 (centres unmarked) [CBK065013],108
20,CC(C)[C@@H](CO)n1c(=O)[nH]c2ncc(-c3ccco3)nc21 [CBK065018],106
21,CC(C)[C@H](CO)n1c(=O)[nH]c2ncc(-c3ccc(OC(F)(F)F)cc3)nc21 [CBK065037],105

row,SMILES,"viability at 28.5 h, 10 µM [%]"
1,C[C@@H](c1ccccc1)n1c(=O)[nH]c2ncc(-c3cccc(/C=C/C(=O)O)c3)nc21 [CBK065040],106
2,CC(C)[C@@H](CO)n1c(=O)[nH]c2ncc(-c3cccc(/C=C/C(=O)O)c3)nc21 [CBK065043],88.6
3,O=c1[nH]c2ncc(-c3ccsc3)nc2n1CCCO [CBK065044],94.9
4,CN(C)c1cccc(-c2cnc3[nH]c(=O)n(CCCO)c3n2)c1 [CBK065052],102
5,COc1ncc(-c2cnc3[nH]c(=O)n(Cc4ccc(S(C)(=O)=O)cc4)c3n2)cn1 [CBK065053],103
6,CS(=O)(=O)c1ccc(Cn2c(=O)[nH]c3ncc(-c4cccc(/C=C/C(=O)O)c4)nc32)cc1 [CBK065059],97.7
7,O=c1[nH]c2ncc(-c3cccc4ncccc34)nc2n1CCCO [CBK065060],104
8,O=c1[nH]c2ncc(-c3cccnc3)nc2n1CCN1CCOCC1 [CBK065070],103
9,O=c1[nH]c2ncc(-c3cccc(CO)c3)nc2n1CC1CC1 [CBK065088],63.9
10,NC(=O)c1ccc(-c2cnc3[nH]c(=O)n(CCCN4CCOCC4)c3n2)cc1 [CBK065092],102
11,COCCCn1c(=O)[nH]c2ncc(-c3cccc(CO)c3)nc21 [CBK065104],99.4
12,COCCCn1c(=O)[nH]c2ncc(-c3cccc(/C=C/C(=O)O)c3)nc21 [CBK065107],104
13,COc1cc(-c2cncc(Nc3ccc4c(c3)OC(F)(F)C(F)(F)O4)n2)cc(OC)c1OC [CBK065138],94.4
14,CN1CCN(c2ccc(-c3cncc(N4CCN(c5ccncc5)CC4)n3)cn2)CC1 [CBK065144],92.9
15,COc1ncc(-c2cncc(N3CCN(CCO)CC3)n2)c(OC)n1 [CBK065146],84.8
16,CCCC/C=C/c1cncc(Nc2cc(OC)c(OC)c(OC)c2)n1 [CBK065155],102
17,O=C(c1ccco1)N1CCN(c2cncc(-c3ccc4ccccc4c3)n2)CC1 [CBK065184],89
18,COc1cc(Nc2cncc(-c3cccnc3)n2)cc(OC)c1OC [CBK065201],93.7
19,OCc1ccccc1-c1cncc(N2CCN(c3ccncc3)CC2)n1 [CBK065208],113
20,CC(=O)Nc1cccc(-c2cncc(NCc3cccc(Cl)c3)n2)c1 [CBK065236],97.2

# Reference: article PMC12040169 (PLOS Biology, 2025)
